Assay results from patent US7115382B1, “Method for detecting IGFBP-4 protease without detecting IGFBP-4 protease/proMBP Complex” (Mayo Foundation for Medical Education and Research, priority 1999, dated 2006).

Tested on: HEK 293 cells
Experiment: Flow cytometry of PAPP-A binding to the cell surface
Format: cell-based, human
Conditions: HEK 293 cells transfected with rPAPP-A cDNA, mAb 234-2 detection
Protocol: Flow cytometry was used to assess the binding of PAPP-A to the cell surface of HEK 293 cells either transfected with empty expression vector or with the vector containing cDNA encoding rPAPP-A (see Example 4 for a description of vectors and transfections). […] Fifty μl of the cell suspension was incubated with primary antibody (final concentration 5 μg/ml purified PAPP-A specific mAb 234-2) on ice for 30 min. Cells were then washed three times with L15/FBS and incubated with fluorescein isothiocyanate-conjugated goat anti-mouse IgG (heavy and light chain, Zymed Laboratories, San Francisco, Calif.) for 30 min on ice. Cells were fixed in buffer with 1% formaldehyde before flow cytometry on a Becton Dickinson instrument. […] Similar results were obtained with other PAPP-A monoclonal antibodies (234-3, 234-4, 234-5, and 234-7).

## PAPP-A: pregnancy-associated plasma protein-A, the IGF-dependent IGFBP-4 protease
  Binding to the cell surface: binds to the surface of HEK 293 cells
